≈ marks a conversion by molar mass, not a printed value. Entries after “also recorded” stand apart in the source; their conditions may differ.
Legend:
[1] = tested on: Lactobacillus gasseri; test: Growth of normal vaginal flora bacterium in culture; format: cell-based
Procedure: This example illustrates the effect of the inhibitory agents of this invention on the normal vaginal flora. Lactobacillus gasseri, which is found in normal vaginal flora, was obtained from the American Type Culture Collection (Rockville, Md.) and cultured under anaerobic conditions at 37° C. in the presence of the desired test agents. Control samples without added test agents were also run. Samples were collected at twenty minute intervals starting at 120 minutes after the start of incubation through 240 minutes. The absorbance at 550 nm was used to estimate the cell density and inhibitory effects. Nonoxynol-9 was also evaluated for comparison purposes.

[2] = tested on: MT2 cells; test: Cytotoxicity towards host cells of the viral binding assay; format: cell-based; conditions: at the levels of the HIV viral binding assay
Procedure: Serial dilutions of the test compounds (ranging from 0.1 μg/ml to 1.0 mg/ml) were added to HIV-1 virus such that 50 μl inoculum produced between 70 to 100 syncytia per well in untreated wells containing MT2 cells. The HIV-1 used was strain III, propagated in, and harvested from, a T4-lymphobastoid cell line. Each serial dilution of the test compound with virus was placed in each of three wells containing MT2 cells. The test compound alone was added to a fourth well containing MT2 cells to test for possible cytotoxicity. Triplicate virus control samples (no added test compounds but containing the equivalent amounts of the RPMI medium) were also included.

[3] = tested on: vaginal/cervical epithelial and other cells; conditions: concentrations as low as; cited from earlier work
[4] = tested on: sheep testicular hyaluronidase; test: Hyaluronidase inhibition (hyaluronic acid hydrolysis); format: biochemical; conditions: for IC50: pH 5.5, 10 minutes preincubation
Procedure: Hyaluronidase activity was quantitatively determined by measuring the extent of hyaluronic acid hydrolysis (i.e., the concentration of N-acetylglucosamine-reactive material formed from enzyme activity). Reaction mixtures (0.25 ml) containing the following were prepared: test compound (variable concentration); 0.1 M sodium acetate; 0.15 M sodium chloride; pH adjusted to 5.5; 7.2 units sheep testicular hyaluronidase (Sigma, Type III; H-2251) contained in an acetate buffer; 0.3 mg/ml hyaluronic acid (Sigma, from bovine vitreous humor; H-7630). The enzyme was preincubated with the test agent (1 mg/ml for screening purposes) for 10 minutes before starting the reaction by the addition of hyaluronic acid. The enzyme reaction was determined using the method of Aronson and Davidson (J. Biol. Chem. 241 437-440 (1967)). The reaction mixture was incubated for 30 minutes at room temperature. The reaction product was determined colorimetrically with p-dimethylaminobenzaldehyde (Reissig et al., J. Biol. Chem. 217 959-966 (1965)) by measuring the absorbance at 545 nm.
The reversibility of the hyaluronidase was determined by evaluating enzyme activity at different levels of enzyme (Ackermann and Potter, Proc. Soc. Exp. Biol. Med. 72 1-9 (1949)).

[5] = tested on: rabbit spermatozoa; test: Motility of rabbit sperm in the contraceptive test; format: cell-based; conditions: rabbit sperm in TALP buffer
Procedure: Rabbit spermatozoa were collected and then diluted in a TALP buffer containing glucose, lactate, and pyruvate. Test compounds were dissolved in the same buffer system. […] Female rabbits were then artificially inseminated with about 0.5 ml of buffer containing about 22.5-30×10^6 sperm. For controls (i.e., sperm and buffer containing no added contraceptive agents), fertilization averaged about 96 percent.

[6] = tested on: Chlamydia trachomatis (serotype E/UW-5/CS); test: Chlamydia multiplication assay in HeLa monolayers; format: cell-based
Procedure: This example illustrates the inhibitory effect of several of the inhibitory agents of this invention on Chlamydia trachomatis using a multiplication assay. Immediately before the assay, cryopreserved Chlamydia trachomatis (serotype E/UW-5/CS) samples were quickly thawed at 37° C. and suspended in Hank's balanced salt solution (HBSS) by mild sonication. Serial 1:10 dilutions (10^-1 to 10^-7) of the bacterial suspension were made. HeLa monolayers on coverslips were inoculated with 100 μl of the chlamydia samples in the presence (0.1, 1.0, 10, 100, and 1000 μg/ml) or absence of the test agents. After one hour, the monolayers were washed with HBSS to remove free chlamydia and test agent (if present) and then incubated for 48 hours in HBSS at 37° C.
After the medium was removed, the HeLa monolayer samples were fixed in methanol and washed. The cells were then treated with Kallsted Chlamydia Culture Confirmation fluorescein-conjugated Monoclonal Antibody for 30 minutes at room temperature in a dark, humidified chamber. The cells were then washed with water and covered with coverslip using a mounting medium. Inclusions due to chlamydia infection were visualized with a fluorescent microscope as green fluorescence.

[7] = tested on: sperm; test: Sperm acrosomal loss; format: cell-based; conditions: 0.5 μg/ml, read-out: maximal acrosomal loss induced
[8] = tested on: Neisseria gonorrhea; test: Bacterial multiplication assay (gonococci); format: cell-based
Procedure: This example illustrates the inhibitory effect for several of the inhibitory agents of this invention on Neisseria gonorrhea using a bacterial multiplication assay. Neisseria gonorrhea isolated from local uncomplicated cases of gonorrhea was verified by Gram stain, oxidase reactivity, and sugar fermentation. The titer of log-phase cultures was adjusted by dilution in GC broth to about 10^8 colony forming units per milliliter. Samples were diluted with broth containing no additives (control) and serial dilutions of the test agents (1000 μg/ml to 0.1 μg/ml). The resulting cultures were incubated at 37° C. for 4 hours. Five serial dilutions were made with GC broth; each dilution was inoculated onto GC agar plates. The inoculated plates were incubated overnight at 37° C. and the resultant gonococcal colonies were counted using bright-field microscopy.

[9] = tested on: HIV-1; test: Viral binding inhibition assay (syncytia formation in MT2 cells); format: cell-based, HIV-1 (strain III)
Procedure: Cultures of MT2 cells (plated in 96-well cell culture plates at about 10,000 cells per well) were grown in a RPMI 1640 medium (Gibco, cat. no. 320-1867AG) which was supplemented with 10 percent fetal bovine serum, 100 I.U./ml penicillin, 100 μg/ml streptomycin, 20 μg/ml gentamicin, and 25 mM HEPES.
The resulting cultures were incubated at 37° C. […] The cultures were then scored microscopically for syncytia formation. […] Data are expressed as percent of a control value (no added test agent) viral titer and plotted as a function of concentration of the test agent. lC50 values (concentration of agent causing 50 percent inhibition) were calculated from the plots of concentration versus viral titer using curve-fitting software.

[10] = tested on: HSV (type 2, strain 333); test: Anti-HSV plaque assay on Vero cells; format: cell-based, herpes simplex virus
Procedure: Viral infectivity was measured by co-culturing herpes simplex virus (HSV) with Vero (African green monkey kidney) cells in phosphate-buffered solutions.
The test agent was serially diluted (0.1 μg/ml to 500 μg/ml) in phosphate-buffered saline (PBS). Each dilution was mixed with HSV (type 2, strain 333). Samples (1 ml) of each mixture were plated in triplicate on washed and drained monolayers of Vero (African green monkey kidney) cells on the bottom of […] flasks. The initial titer in each culture was determined as plaque forming units per milliliter using control cultures with no added test agents. Flasks were incubated at 37° C. for 2 hours and the medium (containing virus and test agent) removed. After washing the cells with PBS, the cells were cultured in supplemented medium 199 (Sigma Chem., cat. no. M9163) for 3 days. After culturing, the cells were stained with Giemsa and the number of viral plaques was determined by phase contrast microscopy. After correcting for dilutions, the viral titer was estimated from the number of plaques. Data were also expressed as the percentage of plaques relative to the control samples (not exposed to test agents). […] The concentration of test agent that was required to reduce the viral titer by 50 percent (IC50) was estimated with curve-fitting software from plots of plaque-forming units per milliliter against the concentration of test agent.

[11] = tested on: human immunodeficiency virus (HIV-1, RF strain); test: microbe, parasite or virus in culture; conditions: Human immunodeficiency virus 1, read-out: kill of the virus in culture
Procedure: For the cell-free virus inactivation assay, HIV is added to the test agent in water and incubated for about 2 minutes. After removal of the test agent by dilution, the treated virus is added to target cells and incubated for 7 days.

[12] = tested on: rabbit spermatozoa; test: Contraceptive effect: rabbit sperm treated before artificial insemination; format: in vivo
Procedure: Rabbit spermatozoa were collected and then diluted in a TALP buffer containing glucose, lactate, and pyruvate. Test compounds were dissolved in the same buffer system.

[13] = physchem; format: physicochemical
[14] = tested on: spermatozoa; format: cell-based; conditions: concentrations as high as 20 mg/ml

In the case of Nonoxynol-9 [reference compound], the “inhibition of Lactobacillus gasseri growth” value ([1]; 0.5 mg/ml) is listed as “about 60%”, the “cytotoxicity towards the MT2 cells” value [2] is listed as “did show cytotoxic effects” and the “concentration that can injure cells” value [3] is listed as “about 0.0005%”. The IC50 [4] was “inactive”.
For `O=C(O)C(OC(C(=O)O)c1ccccc1)c1ccccc1` (stereo not drawn) [H2 SO4 -modified Mandelic Acid, 2,2'-diphenyl-2,2'-oxy-di-acetic acid], the sperm motility [5] was “did not effect sperm motility”, the IC50 [6] was 0.05 µg/mL (≈ 0.000175 mM) and the Emax at 0.5 µg/mL [7] was about 70%. For the same compound, the “effect on normal vaginal flora” value [1] was “no apparent adverse effects”, the “effect on the growth of Lactobacillus” value ([1]; 5 mg/ml) was “did not have any effect; also recorded: not affected” and the “inhibition of gonococcal multiplication/growth” value ([8]; 100 μg/ml) was “completely inhibited; also recorded: complete inhibition”. The IC50 ([8]; Neisseria, gonococcal multiplication, 4 hours) was 15 to 17 µg/mL (≈ 0.0524 to 0.0594 mM), the IC50 ([9]; Human immunodeficiency virus 1, HIV-1, MT2 cells) was 0.3 µg/mL (≈ 0.00105 mM) and the IC100 ([9]; Human immunodeficiency virus 1, read-out: Complete Inhibition (lowest concentration at which complete inhibition occurs), HIV-1, MT2 cells) was 5 µg/mL. The “HSV inhibition in culture” value ([10]; 10 μg/ml) was “completely inhibited”, the IC99.9 ([10]; Vero, read-out: Inhibition 3-Log (99.9 percent), concentration) was 6.8 µg/mL and the IC99.99 ([10]; Vero, read-out: Inhibition 4-Log (99.99 percent), concentration) was 10 µg/mL. The killing at 10 µg/mL [11] was about 99%, the “reversibility of hyaluronidase inhibition” value ([4]; enzyme activity at different levels of enzyme) was “irreversible” and the IC50 [4] was 8.4 µg/mL (≈ 0.0293 mM). For the same compound, the “fertilization (average)” value ([12]; 5 mg/ml added to sperm/buffer, about 15 minutes at 37° C., controls about 96 percent) was “about 10%”, the conception ([12]; rabbit sperm treated with about 5 mg/ml prior to artificial insemination) was “nearly complete inhibition of conception” and the “water solubility (in words)” value [13] was “water soluble”. The solubility ([13]; water) was about 350 mg/mL (≈ 1220 mM) and the sperm motility [14] was “did not result in the loss of sperm motility”.

From patent US5932619A, “Method for preventing sexually transmitted diseases” (Rush-Presbyterian, St. Luke's Medical Center, priority 1997, dated 1999)
